These results are taken from patent US20260297081A1, “COMPOUNDS AND METHODS OF TREATING CANCERS” (Cullgen Inc., priority 2023, published 2026).

Some results are limits rather than exact numbers.

The assay has as its target CDK4 (Homo sapiens, UniProt P11802+Q16531). Briefly: CDK4 percentage degradation in Calu-1 cells (Table 6). It is filed as cell-based. Details: Cells that express cyclin D1-3 and CDK4/6 proteins were treated with heterobifunctional compounds; endogenous in cells; host or cells: Calu-1. As to conditions: 16 hours; for inhibition at 0.04 µM: 40 nM; for inhibition at 0.2 µM: 200 nM. Summed up: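 Calu-1 cells exposed to heterobifunctional compounds at 40 nM or 200 nM for 16 h. Cyclin D1 and CDK4 levels measured by Western blot of RIPA lysates (BCA-normalised loading), bands quantified by densitometry and expressed as percentage degradation.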

Sequence of CDK4 (P11802 2-303 limits assumed): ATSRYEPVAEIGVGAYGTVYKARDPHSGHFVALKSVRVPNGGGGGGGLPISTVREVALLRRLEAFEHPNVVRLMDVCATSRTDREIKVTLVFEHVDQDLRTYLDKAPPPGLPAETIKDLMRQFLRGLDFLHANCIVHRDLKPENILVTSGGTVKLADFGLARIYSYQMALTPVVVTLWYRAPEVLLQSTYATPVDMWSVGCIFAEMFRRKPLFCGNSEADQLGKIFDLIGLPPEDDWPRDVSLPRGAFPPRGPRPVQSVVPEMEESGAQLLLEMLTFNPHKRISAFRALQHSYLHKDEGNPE
Sequence of CDK4 (P24385 whole entry partner): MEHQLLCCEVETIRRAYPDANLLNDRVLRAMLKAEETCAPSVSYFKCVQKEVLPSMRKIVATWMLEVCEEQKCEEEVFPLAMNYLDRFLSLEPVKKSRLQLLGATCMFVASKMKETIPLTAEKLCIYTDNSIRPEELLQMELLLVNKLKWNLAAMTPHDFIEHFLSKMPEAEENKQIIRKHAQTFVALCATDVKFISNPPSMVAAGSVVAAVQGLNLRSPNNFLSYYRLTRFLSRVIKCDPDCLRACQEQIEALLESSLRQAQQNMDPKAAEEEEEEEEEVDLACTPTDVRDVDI
Sequence of CDK4 (Q16531 2-1140 limits assumed): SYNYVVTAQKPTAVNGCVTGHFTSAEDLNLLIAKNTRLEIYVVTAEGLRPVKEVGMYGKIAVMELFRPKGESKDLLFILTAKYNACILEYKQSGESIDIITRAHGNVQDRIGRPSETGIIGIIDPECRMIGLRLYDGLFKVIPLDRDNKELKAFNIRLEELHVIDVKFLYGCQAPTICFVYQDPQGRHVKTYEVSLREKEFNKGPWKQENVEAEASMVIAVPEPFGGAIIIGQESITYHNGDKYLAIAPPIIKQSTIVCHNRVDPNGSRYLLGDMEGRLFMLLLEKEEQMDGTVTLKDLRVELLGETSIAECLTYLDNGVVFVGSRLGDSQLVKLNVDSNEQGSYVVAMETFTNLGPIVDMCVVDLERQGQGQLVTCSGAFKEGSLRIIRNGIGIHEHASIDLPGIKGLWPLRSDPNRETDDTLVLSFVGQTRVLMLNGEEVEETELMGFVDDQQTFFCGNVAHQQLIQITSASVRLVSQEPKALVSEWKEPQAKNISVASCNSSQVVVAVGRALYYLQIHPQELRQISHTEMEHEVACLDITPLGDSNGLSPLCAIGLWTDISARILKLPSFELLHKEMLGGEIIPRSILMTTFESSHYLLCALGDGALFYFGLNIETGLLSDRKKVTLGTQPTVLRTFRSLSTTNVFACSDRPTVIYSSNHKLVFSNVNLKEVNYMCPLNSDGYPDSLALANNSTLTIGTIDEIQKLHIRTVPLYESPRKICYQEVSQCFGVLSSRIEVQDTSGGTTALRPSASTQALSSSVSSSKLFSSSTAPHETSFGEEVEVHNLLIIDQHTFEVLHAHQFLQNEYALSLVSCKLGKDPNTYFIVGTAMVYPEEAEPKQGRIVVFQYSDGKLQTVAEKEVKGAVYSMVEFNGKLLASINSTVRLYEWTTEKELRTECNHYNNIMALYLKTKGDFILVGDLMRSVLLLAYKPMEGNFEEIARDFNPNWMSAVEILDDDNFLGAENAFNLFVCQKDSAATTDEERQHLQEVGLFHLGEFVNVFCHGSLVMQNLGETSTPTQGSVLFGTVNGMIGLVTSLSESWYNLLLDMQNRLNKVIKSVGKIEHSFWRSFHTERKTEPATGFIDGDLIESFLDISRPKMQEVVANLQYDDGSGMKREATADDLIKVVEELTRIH

As usually defined, the inhibition is the drop in the measured response relative to a control, in per cent. A low value points to little suppression. For the compound `CNc1ccc(C(=O)Nc2cccc(=O)[nH]2)c(NC2CC3(CC(NC(=O)CN4CCN(c5ccc(Nc6ncc7c(C)c(C(C)=O)c(=O)n(C8CCCC8)c7n6)nc5)CC4)C3)C2)n1` (centres unmarked) [CPD-122, 2-((6-(2-(4-(6-((6-Acetyl-8-cyclopentyl-5-methyl-7-oxo-7,8-dihydropyrido[2,3-d]pyrimidin-2-yl)amino)pyridin-3-yl)piperazin-1-yl)acetamido)spiro[3.3]heptan-2-yl)amino)-6-(methylamino)-N-(6-oxo-1,6-dihydropyridin-2-yl)nicotinamide], the inhibition at 0.04 µM lay within 30 to 50% and the inhibition at 0.2 µM was 50 to 80%.
The compound `CNc1ccc(C(=O)Nc2cccc(N(C)C)n2)c(NC2CC3(CC(NC(=O)CN4CCN(c5ccc(Nc6ncc7c(C)c(C(C)=O)c(=O)n(C8CCCC8)c7n6)nc5)CC4)C3)C2)n1` (centres unmarked) [CPD-88, 2-((6-(2-(4-(6-((6-Acetyl-8-cyclopentyl-5-methyl-7-oxo-7,8-dihydropyrido[2,3-d]pyrimidin-2-yl)amino)pyridin-3-yl)piperazin-1-yl)acetamido)spiro[3.3]heptan-2-yl)amino)-N-(6-(dimethylamino)pyridin-2-yl)-6-(methylamino)nicotinamide] registered an inhibition at 0.04 µM of 30 to 50% and an inhibition at 0.2 µM of 50 to 80%.
Regarding `CNc1ccc(C(=O)Nc2ccc(=O)[nH]n2)c(NCCCCCNC(=O)CN2CCN(c3ccc(Nc4ncc5c(C)c(C(C)=O)c(=O)n(C6CCCC6)c5n4)nc3)CC2)n1` [CPD-77, 2-((5-(2-(4-(6-((6-Acetyl-8-cyclopentyl-5-methyl-7-oxo-7,8-dihydropyrido[2,3-d]pyrimidin-2-yl)amino)pyridin-3-yl)piperazin-1-yl)acetamido)pentyl)amino)-6-(methylamino)-N-(6-oxo-1,6-dihydropyridazin-3-yl)nicotinamide], the inhibition at 0.04 µM is less than 30% and the inhibition at 0.2 µM is less than 30%.
As for `CNc1ccc(C(=O)Nc2ccc(N(C)C)nn2)c(NC2CC(COCC(=O)N3CCN(c4ccc(Nc5ncc6c(C)c(C(C)=O)c(=O)n(C7CCCC7)c6n5)nc4)CC3)C2)n1` (centres unmarked) [CPD-164, 2-((3-((2-(4-(6-((6-acetyl-8-cyclopentyl-5-methyl-7-oxo-7,8-dihydropyrido[2,3-d]pyrimidin-2-yl)amino)pyridin-3-yl)piperazin-1-yl)-2-oxoethoxy)methyl)cyclobutyl)amino)-N-(6-(dimethylamino)pyridazin-3-yl)-6-(methylamino)nicotinamide], the inhibition at 0.04 µM fell in the range of 50 to 80% and the inhibition at 0.2 µM was more than 80%.
The compound `CNc1ccc(C(=O)Nc2ccc3c(n2)CCC3)c(NCCCCCNC(=O)CN2CCN(c3ccc(Nc4ncc5c(C)c(C(C)=O)c(=O)n(C6CCCC6)c5n4)nc3)CC2)n1` [CPD-40, 2-((5-(2-(4-(6-((6-Acetyl-8-cyclopentyl-5-methyl-7-oxo-7,8-dihydropyrido[2,3-d]pyrimidin-2-yl)amino)pyridin-3-yl)piperazin-1-yl)acetamido)pentyl)amino)-N-(6,7-dihydro-5H-cyclopenta[b]pyridin-2-yl)-6-(methylamino)nicotinamide] came in with an inhibition at 0.04 µM of 50 to 80% and an inhibition at 0.2 µM of 50 to 80%.
In turn, `CNc1ccc(C(=O)Nc2cccc(C3CC3)n2)c(NC2CC(NC(=O)CN3CCN(c4ccc(Nc5ncc6c(C)c(C(C)=O)c(=O)n(C7CCCC7)c6n5)nc4)CC3)C2)n1` (centres unmarked) [CPD-240, 2-((3-(2-(4-(6-((6-acetyl-8-cyclopentyl-5-methyl-7-oxo-7,8-dihydropyrido[2,3-d]pyrimidin-2-yl)amino)pyridin-3-yl)piperazin-1-yl)acetamido)cyclobutyl)amino)-N-(6-cyclopropylpyridin-2-yl)-6-(methylamino)nicotinamide] registered an inhibition at 0.04 µM of 30 to 50% and an inhibition at 0.2 µM of 30 to 50%.
With `CNc1ccc(C(=O)Nc2ccc(C)c(OC)n2)c(NCCCCCNC(=O)CN2CCN(c3ccc(Nc4ncc5c(C)c(C(C)=O)c(=O)n(C6CCCC6)c5n4)nc3)CC2)n1` [CPD-116, 2-((5-(2-(4-(6-((6-Acetyl-8-cyclopentyl-5-methyl-7-oxo-7,8-dihydropyrido[2,3-d]pyrimidin-2-yl)amino)pyridin-3-yl)piperazin-1-yl)acetamido)pentyl)amino)-N-(6-methoxy-5-methylpyridin-2-yl)-6-(methylamino)nicotinamide], the inhibition at 0.04 µM was 30 to 50% and the inhibition at 0.2 µM fell in the range of 30 to 50%.
For the compound `[2H]C([2H])([2H])Nc1ccc(C(=O)Nc2cc(C)n(C)n2)c(NC2CCN(C(=O)CN3CCN(c4ccc(Nc5ncc6c(C)c(C(C)=O)c(=O)n(C7CCCC7)c6n5)nc4)CC3)CC2)n1` [CPD-230, 2-((1-(2-(4-(6-((6-acetyl-8-cyclopentyl-5-methyl-7-oxo-7,8-dihydropyrido[2,3-d]pyrimidin-2-yl)amino)pyridin-3-yl)piperazin-1-yl)acetyl)piperidin-4-yl)amino)-N-(1,5-dimethyl-1H-pyrazol-3-yl)-6-((methyl-d3)amino)nicotinamide], the inhibition at 0.04 µM was less than 30% and the inhibition at 0.2 µM was in the range of 30 to 50%.
For `CNc1ccc(C(=O)Nc2ccc(N(C)C)nn2)c(N(C)CCCCCNC(=O)CN2CCN(c3ccc(Nc4ncc5c(C)c(C(C)=O)c(=O)n(C6CCCC6)c5n4)nc3)CC2)n1` [CPD-23, 2-((5-(2-(4-(6-((6-Acetyl-8-cyclopentyl-5-methyl-7-oxo-7,8-dihydropyrido[2,3-d]pyrimidin-2-yl)amino)pyridin-3-yl)piperazin-1-yl)acetamido)pentyl)(methyl)amino)-N-(6-(dimethylamino)pyridazin-3-yl)-6-(methylamino)nicotinamide] the same measures were less than 30% and less than 30%.
Regarding `CNc1ccc(C(=O)Nc2ccc(N(C)C)nn2)c(NC2CN(C(=O)CCCN3CCN(c4ccc(Nc5ncc6c(C)c(C(C)=O)c(=O)n(C7CCCC7)c6n5)nc4)CC3)C2)n1` [CPD-211, 2-((1-(4-(4-(6-((6-acetyl-8-cyclopentyl-5-methyl-7-oxo-7,8-dihydropyrido[2,3-d]pyrimidin-2-yl)amino)pyridin-3-yl)piperazin-1-yl)butanoyl)azetidin-3-yl)amino)-N-(6-(dimethylamino)pyridazin-3-yl)-6-(methylamino)nicotinamide], the inhibition at 0.04 µM lay within 30 to 50% and the inhibition at 0.2 µM was in the range of 30 to 50%.
For `CC(=O)c1c(C)c2cnc(Nc3ccc(N4CCN(CC(=O)NCCC5CC(Nc6cc(Cl)ccc6C(=O)Nc6ccc(N(C)C)nn6)C5)CC4)cn3)nc2n(C2CCCC2)c1=O` (centres unmarked) [CPD-257, 2-((3-(2-(2-(4-(6-((6-Acetyl-8-cyclopentyl-5-methyl-7-oxo-7,8-dihydropyrido[2,3-d]pyrimidin-2-yl)amino)pyridin-3-yl)piperazin-1-yl)acetamido)ethyl)cyclobutyl)amino)-4-chloro-N-(6-(dimethylamino)pyridazin-3-yl)benzamide], the inhibition at 0.04 µM is less than 30% and the inhibition at 0.2 µM lay within 30 to 50%.
The compound `CNc1ccc(C(=O)Nc2cnn(C)c2)c(NC2CC3(CC(NC(=O)CN4CCN(c5ccc(Nc6ncc7c(C)c(C(C)=O)c(=O)n(C8CCCC8)c7n6)nc5)CC4)C3)C2)n1` (centres unmarked) [CPD-94, 2-((6-(2-(4-(6-((6-Acetyl-8-cyclopentyl-5-methyl-7-oxo-7,8-dihydropyrido[2,3-d]pyrimidin-2-yl)amino)pyridin-3-yl)piperazin-1-yl)acetamido)spiro[3.3]heptan-2-yl)amino)-N-(1-methyl-1H-pyrazol-4-yl)-6-(methylamino)nicotinamide] returned an inhibition at 0.04 µM of less than 30% and an inhibition at 0.2 µM of 30 to 50%.
Compound `CC(=O)c1c(C)c2cnc(Nc3ccc(N4CCN(CC(=O)NC5CC6(C5)CC(Nc5nc(C7CC7)ccc5C(=O)Nc5cccc(C7CC7)n5)C6)CC4)cn3)nc2n(C2CCCC2)c1=O` (centres unmarked) [CPD-138, 2-((6-(2-(4-(6-((6-Acetyl-8-cyclopentyl-5-methyl-7-oxo-7,8-dihydropyrido[2,3-d]pyrimidin-2-yl)amino)pyridin-3-yl)piperazin-1-yl)acetamido)spiro[3.3]heptan-2-yl)amino)-6-cyclopropyl-N-(6-cyclopropylpyridin-2-yl)nicotinamide] gave an inhibition at 0.04 µM of less than 30% and an inhibition at 0.2 µM of 30 to 50%.
For `[2H]C([2H])([2H])Nc1ccc(C(=O)Nc2cc(C)on2)c(NC2CN(C(=O)C(F)(F)CN3CCN(c4ccc(Nc5ncc6c(C)c(C(C)=O)c(=O)n(C7CCCC7)c6n5)nc4)CC3)C2)n1` [CPD-234, 2-((1-(3-(4-(6-((6-acetyl-8-cyclopentyl-5-methyl-7-oxo-7,8-dihydropyrido[2,3-d]pyrimidin-2-yl)amino)pyridin-3-yl)piperazin-1-yl)-2,2-difluoropropanoyl)azetidin-3-yl)amino)-6-((methyl-d3)amino)-N-(5-methylisoxazol-3methyl-yl)nicotinamide], the inhibition at 0.04 µM was less than 30% and the inhibition at 0.2 µM was less than 30%.
For `CNc1ccc(C(=O)Nc2ccc(N(C)C)nn2)c(NC[C@H]2CC[C@@H](NC(=O)CN3CCN(c4ccc(Nc5ncc6c(C)c(C(C)=O)c(=O)n(C7CCCC7)c6n5)nc4)CC3)CC2)n1` [CPD-193, 2-(((cis-4-(2-(4-(6-((6-acetyl-8-cyclopentyl-5-methyl-7-oxo-7,8-dihydropyrido[2,3-d]pyrimidin-2-yl)amino)pyridin-3-yl)piperazin-1-yl)acetamido)cyclohexyl)methyl)amino)-N-(6-(dimethylamino)pyridazin-3-yl)-6-(methylamino)nicotinamide], the inhibition at 0.04 µM was 50 to 80% and the inhibition at 0.2 µM fell in the range of 50 to 80%.
With `CNc1ccc(C(=O)Nc2ccc(N3CCCC3)nn2)c(NCCCCCNC(=O)CN2CCN(c3ccc(Nc4ncc5c(C)c(C(C)=O)c(=O)n(C6CCCC6)c5n4)nc3)CC2)n1` [CPD-17, 2-((5-(2-(4-(6-((6-Acetyl-8-cyclopentyl-5-methyl-7-oxo-7,8-dihydropyrido[2,3-d]pyrimidin-2-yl)amino)pyridin-3-yl)piperazin-1-yl)acetamido)pentyl)amino)-6-(methylamino)-N-(6-(pyrrolidin-1-yl)pyridazin-3-yl)nicotinamide], the inhibition at 0.04 µM was less than 30% and the inhibition at 0.2 µM is 30 to 50%.
